# Residues, ends and D or L forms follow the SMILES beside them.
# Assays:
# Mo7e cells = assay: Mo7e cell proliferation, CCK-8; format: cell-based; details: 1 pM-100 nM, 4 days, read-out: EC50, promotion of Mo7e cells' proliferation
# Description: Fig. 5 Bioactivities determination of RGDS, IL-15, and ADH in the SHTXTHHly fusion form. U87 MG cells were incubated with SHTRGDSTHHly/SHTRGESTHHly, mouse anti-S tag antibody, and the second antibody in sequence, then the cell staining was measured by FACS (A). U87 MG cells were incubated with SHTRGDSTHHly/SHTRGESTHHly and transferred into a fibronectin-coated plate. At different times, the attached cells were subjected to the CCK-8 reagent for quantification (B). In other experiments, cells were stained with DiO dye (green) and observed with a fluorescence microscope (C). Mo7e cells were incubated with different concentrations (1 pM-100 nM) of IL-15 and SHTIL15THHly for 4 days, and the cell numbers were measured with a CCK-8 reagent (D). The activities of ADH and SHTADHTHHly were compared using Ethyl Acetoacetate as the substrate and NADH as the co-factor (E). The activity was measured at 340 nm to monitor the decrease in the absorbance of NADH quantitatively. S: Slope. […] PBS is a blank control.
# Mo7e cells were plated in a 96-well plate with a cell number of twenty thousand per well. After 4 h incubation, serially diluted IL-15 and SHTIL15THHly were added. After 4 days of incubation, the proliferation of cells was measured using the CCK-8 reagent.
# E. coli 25922 = E. coli 25922 in MHB, 37 °C, 18 h, OD600, triplicate
# Description: Fig. 4 Bioactivities determination of the produced AMPs. Different concentrations (0–4000 nM) of cCeA and rCeA (A), or cLL37 and rLL37 (B), were incubated with E. coli 25,922 at 37 °C for 18 h, then the OD600 values were detected. Different concentrations (0–64 μM) of cA12 and rA12 (C) were incubated with U87 MG cells for 8 h, and the number of live cells was measured with the CCK-8 reagent.
# Overnight cultures of E. coli 25922 were diluted with fresh Mueller–Hinton Broth (MHB) to an optical density at 600 nm (OD600) at 0.1 and further diluted at 1:100 with fresh MHB. Then 100 μL bacterial suspension was added in triplicate to the 96-well plate. The commercial (APeptides, China) and bio-produced Cecropin A or LL37 were serially diluted with MHB medium and added into the 96-well plate to final concentrations of 2 to 2000 nM. The plate was incubated at 37 °C for 18 h, and the OD600 values were measured with Synergy LX multi-mode reader (BioTek, USA). Broth with bacterial inoculum without AMP and broth alone were used as control groups in which the relative biomass was set as 1 and 0, respectively.
Compound,EC50 (Mo7e cells) [nM],minimum inhibitory concentration (MIC) (E. coli 25922) [µM]
IL-15: control monomeric IL-15,0.294,–
"CC[C@H](C)[C@H](NC(=O)[C@H](CCCCN)NC(=O)[C@H](CCC(=O)O)NC(=O)[C@H](CCCCN)NC(=O)[C@H](CO)NC(=O)[C@H](CCCCN)NC(=O)[C@H](CCCNC(=N)N)NC(=O)[C@H](Cc1ccccc1)NC(=O)[C@H](Cc1ccccc1)NC(=O)[C@H](CC(=O)O)NC(=O)CNC(=O)[C@H](CC(C)C)NC(=O)[C@@H](N)CC(C)C)C(=O)NCC(=O)N[C@@H](CCCCN)C(=O)N[C@@H](CCC(=O)O)C(=O)N[C@@H](Cc1ccccc1)C(=O)N[C@@H](CCCCN)C(=O)N[C@@H](CCCNC(=N)N)C(=O)N[C@H](C(=O)N[C@H](C(=O)N[C@@H](CCC(N)=O)C(=O)N[C@@H](CCCNC(=N)N)C(=O)N[C@H](C(=O)N[C@@H](CCCCN)C(=O)N[C@@H](CC(=O)O)C(=O)N[C@@H](Cc1ccccc1)C(=O)N[C@@H](CC(C)C)C(=O)N[C@@H](CCCNC(=N)N)C(=O)N[C@@H](CC(N)=O)C(=O)N[C@@H](CC(C)C)C(=O)N[C@H](C(=O)N1CCC[C@H]1C(=O)N[C@@H](CCCNC(=N)N)C(=O)N[C@H](C(=O)N[C@@H](CCC(=O)O)C(=O)N[C@@H](CO)C(=O)O)[C@@H](C)O)C(C)C)[C@@H](C)CC)C(C)C)[C@@H](C)CC [cL3, LL37]",–,1.87
"CC[C@H](C)[C@H](NC(=O)CNC(=O)[C@H](CC(=O)O)NC(=O)[C@H](CCCNC(=N)N)NC(=O)[C@@H](NC(=O)[C@H](CC(N)=O)NC(=O)[C@H](CCC(N)=O)NC(=O)CNC(=O)[C@@H](NC(=O)[C@H](CCCCN)NC(=O)[C@H](CCC(=O)O)NC(=O)[C@@H](NC(=O)[C@H](CCCCN)NC(=O)[C@H](CCCCN)NC(=O)[C@H](Cc1ccccc1)NC(=O)[C@H](CC(C)C)NC(=O)[C@H](CCCCN)NC(=O)[C@H](Cc1c[nH]c2ccccc12)NC(=O)[C@@H](N)CCCCN)[C@@H](C)CC)C(C)C)[C@@H](C)CC)C(=O)N[C@H](C(=O)N[C@@H](CCCCN)C(=O)N[C@@H](C)C(=O)NCC(=O)N1CCC[C@H]1C(=O)N[C@@H](C)C(=O)N[C@H](C(=O)N[C@@H](C)C(=O)N[C@H](C(=O)N[C@H](C(=O)NCC(=O)N[C@@H](CCC(N)=O)C(=O)N[C@@H](C)C(=O)N[C@H](C(=O)N[C@@H](CCC(N)=O)C(=O)N[C@H](C(=O)N[C@@H](C)C(=O)N[C@@H](CCCCN)C(=O)O)[C@@H](C)CC)[C@@H](C)O)C(C)C)C(C)C)C(C)C)[C@@H](C)CC [cCeA, Cecropin A] (H-KWKLFKKIEKVGQNIRDGIIKAGPAVAVVGQATQIAK-OH)",–,0.85
